Assay results reported in patent US7547679B2, “Ether linked macrolides useful for the treatment of microbial infections” (GlaxoSmithKline istrazivacki center Zagreb d.o.o, priority 2005, dated 2009).
Structures can show the parent of a compound that is named as a salt.

Columns and labels:
Format in all cases: cell-based
[1] = test system: erythromycin resistant strain of Streptococcus pneumoniae; test: MIC, microtiter broth serial dilution test, erythromycin resistant S. pneumoniae; settings: read-out: MIC against erythromycin resistant strain of Streptococcus pneumoniae
sensitive S. pneumoniae = test: MIC, microtiter broth serial dilution test, sensitive S. pneumoniae; settings: Streptococcus pneumoniae; sensitive strain; read-out: MIC against sensitive S. pneumoniae
sensitive S. pyogenes = test: MIC, microtiter broth serial dilution test, sensitive S. pyogenes; settings: Streptococcus pyogenes; sensitive strain; read-out: MIC against sensitive S. pyogenes
E. faecalis = test: MIC, microtiter broth serial dilution test, E. faecalis; settings: Enterococcus faecalis; read-out: MIC against E. faecalis
[2] = test system: erythromycin resistant strain of Streptococcus pyogenes; test: MIC, microtiter broth serial dilution test, erythromycin resistant S. pyogenes; settings: read-out: MIC against erythromycin resistant strain of Streptococcus pyogenes
M. catarrhalis = test: MIC, microtiter broth serial dilution test, M. catarrhalis; settings: Moraxella catarrhalis; read-out: MIC against M. catarrhalis

With CC[C@H]1OC(=O)[C@H](C)[C@@H](OC2C[C@@](C)(OC)[C@@H](OCCNCCOCCOCCNc3cc4c(=O)c(C(=O)O)cn(C5CC5)c4cc3Cl)[C@H](C)O2)[C@H](C)[C@@H](O[C@@H]2O[C@H](C)C[C@H](N(C)C)[C@H]2O)[C@](C)(O)C[C@@H](C)CN(C)[C@H](C)[C@@H]2OC(=O)O[C@]12C (stereo partly shown) [Example 2, 4″-O-[2-(2-{2-[2-(3-Carboxy-7-chloro-1-cyclopropyl-4-oxo-1,4-dihydro-quinolin-6-yl-amino)-ethoxy]-ethoxy}-ethylamino)-ethyl]-azithromycin 11,12-cyclic carbonate] the MIC [1] was ≤ 0.25 µg/mL, the MIC (sensitive S. pneumoniae) was ≤ 0.125 µg/mL and the MIC (sensitive S. pyogenes) was ≤ 0.125 µg/mL. The MIC (E. faecalis) was ≤ 1 µg/mL and the MIC [2] was ≤ 0.25 µg/mL.
In the case of CC[C@H]1OC(=O)[C@H](C)[C@@H](O[C@H]2C[C@@](C)(OC)[C@@H](OCCN(C)CCOCCOCCc3ccc4c(c3)c(=O)c(C(=O)O)cn4CC)[C@H](C)O2)[C@H](C)[C@@H](O[C@@H]2O[C@H](C)C[C@H](N(C)C)[C@H]2O)[C@](C)(OC)C[C@@H](C)C(=O)[C@H](C)[C@@H](O)[C@]1(C)O [Example 19, 4″-O-{2-({2-[(2-{[2-(3-Carboxy-1-ethyl-4-oxo-1,4-dihydro-6-quinolinyl)ethyl]oxy}ethyl)oxy]ethyl}methylamino)ethyl}-6-O-methyl-erythromycin A], the MIC (M. catarrhalis) is reported as ≤ 1 µg/mL, the MIC [1] is reported as ≤ 0.25 µg/mL and the MIC (sensitive S. pneumoniae) is reported as ≤ 0.125 µg/mL. For the same molecule, the MIC (sensitive S. pyogenes) was ≤ 0.125 µg/mL, the MIC (E. faecalis) was ≤ 1 µg/mL and the MIC [2] was ≤ 0.25 µg/mL.
With CC[C@H]1OC(=O)[C@H](C)[C@@H](O[C@H]2C[C@@](C)(OC)[C@@H](OCCCNC(=O)CCOCCOCCNc3cc4c(=O)c(C(=O)O)cn(C5CC5)c4cc3Cl)[C@H](C)O2)[C@H](C)[C@@H](O[C@@H]2O[C@H](C)C[C@H](N(C)C)[C@H]2O)[C@](C)(O)C[C@@H](C)CN(C)[C@H](C)[C@@H](O)[C@]1(C)O [Example 11, 4″-O-[3-(3-{2-[2-(3-carboxy-7-chloro-1-cyclopropyl-4-oxo-1,4-dihydro-quinolin-6-ylamino)-ethoxy]-ethoxy}-propionylamino)-propyl]-azithromycin] the MIC [1] was ≤ 0.25 µg/mL, the MIC (sensitive S. pneumoniae) was ≤ 0.125 µg/mL and the MIC (sensitive S. pyogenes) was ≤ 0.125 µg/mL. For the same molecule, the MIC (E. faecalis) was ≤ 1 µg/mL and the MIC [2] was ≤ 0.25 µg/mL.
With CC[C@H]1OC(=O)[C@H](C)[C@@H](O[C@H]2C[C@@](C)(OC)[C@@H](OCCNCCOCCNc3cc4c(cc3F)c(=O)c(C(=O)O)cn4C3CC3)[C@H](C)O2)[C@H](C)[C@@H](O[C@@H]2O[C@H](C)C[C@H](N(C)C)[C@H]2O)[C@](C)(O)C[C@@H](C)CN(C)[C@H](C)[C@H]2OC(=O)O[C@@]21C [Example 16, 4″-O-(2-{2-[2-(3-Carboxy-6-fluoro-1-cyclopropyl-4-oxo-1,4-dihydro-quinolin-7-ylamino)-ethoxy]-ethylamino}-ethyl)-azithromycin 11,12-cyclic carbonate] the MIC [1] was ≤ 0.25 µg/mL, the MIC (sensitive S. pneumoniae) was ≤ 0.125 µg/mL and the MIC (sensitive S. pyogenes) was ≤ 0.125 µg/mL. The MIC (E. faecalis) was ≤ 1 µg/mL and the MIC [2] was ≤ 0.25 µg/mL.
CC[C@H]1OC(=O)[C@H](C)[C@@H](O[C@H]2C[C@@](C)(OC)[C@@H](OCCCOCCOCCCc3ccc4c(c3)c(=O)c(C(=O)O)cn4CC)[C@H](C)O2)[C@H](C)[C@@H](O[C@@H]2O[C@H](C)C[C@H](N(C)C)[C@H]2O)[C@](C)(O)C[C@@H](C)CN(C)[C@H](C)[C@@H](OC)[C@]1(C)O [Example 8, 4″-O-(3-{2-[3-(3-Carboxy-1-ethyl-4-oxo-1,4-dihydro-quinolin-6-yl)-propoxy]-ethoxy}-propyl)-11-O-methyl azithromycin] was tested, and the MIC (M. catarrhalis) was ≤ 1 µg/mL, the MIC [1] was ≤ 0.25 µg/mL and the MIC [2] was ≤ 0.25 µg/mL.
With CC[C@H]1OC(=O)[C@H](C)[C@@H](O[C@H]2C[C@@](C)(OC)[C@@H](OCCCOCCOCCCc3ccc4c(c3)c(=O)c(C(=O)O)cn4N(C)C)[C@H](C)O2)[C@H](C)[C@@H](O[C@@H]2O[C@H](C)C[C@H](N(C)C)[C@H]2O)[C@](C)(O)C[C@@H](C)CN(C)[C@H](C)[C@@H](O)[C@]1(C)O [Example 15, 4″-O-(3-{2-[3-(3-Carboxy-1-dimethylamino-4-oxo-1,4-dihydro-quinolin-6-yl)-propoxy]-ethoxy}-propyl)-azithromycin] the MIC (M. catarrhalis) was ≤ 1 µg/mL, the MIC [1] was ≤ 0.25 µg/mL and the MIC (sensitive S. pneumoniae) was ≤ 0.125 µg/mL. The MIC (sensitive S. pyogenes) was ≤ 0.125 µg/mL, the MIC (E. faecalis) was ≤ 1 µg/mL and the MIC [2] was ≤ 0.25 µg/mL.
CC[C@H]1OC(=O)[C@H](C)[C@@H](O[C@H]2C[C@@](C)(OC)[C@@H](OCCCNCCOCCCc3ccc4c(c3)c(=O)c(C(=O)O)cn4CC)[C@H](C)O2)[C@H](C)[C@@H](O[C@@H]2O[C@H](C)C[C@H](N(C)C)[C@H]2O)[C@](C)(O)C[C@@H](C)CN(C)[C@H](C)[C@@H](O)[C@]1(C)O [Example 5, 4″-O-(3-{2-[3-(3-Carboxy-1-ethyl-4-oxo-1,4-dihydro-quinolin-6-yl)-propoxy]-ethylamnio}-propyl)-azithromycin] was tested, and the MIC (M. catarrhalis) was ≤ 1 µg/mL, the MIC [1] was ≤ 0.25 µg/mL and the MIC (sensitive S. pneumoniae) was ≤ 0.125 µg/mL. For the same molecule, the MIC (sensitive S. pyogenes) was ≤ 0.125 µg/mL, the MIC (E. faecalis) was ≤ 1 µg/mL and the MIC [2] was ≤ 0.25 µg/mL.
CC[C@H]1OC(=O)[C@H](C)[C@@H](O[C@H]2C[C@@](C)(OC)[C@@H](OCCCOCCCOCCCc3ccc4c(c3)c(=O)c(C(=O)O)cn4C3CC3)[C@H](C)O2)[C@H](C)[C@@H](O[C@@H]2O[C@H](C)C[C@H](N(C)C)[C@H]2O)[C@](C)(O)C[C@@H](C)CN(C)[C@H](C)[C@@H](O)[C@]1(C)O [Example 13, 4″-O-(3-{3-[3-(3-Carboxy-1-cyclopropyl-4-oxo-1,4-dihydro-quinolin-6-yl)-propoxy]-propoxy}-propyl)-azithromycin] was tested, and the MIC (M. catarrhalis) was ≤ 1 µg/mL, the MIC [1] was ≤ 0.25 µg/mL and the MIC (sensitive S. pneumoniae) was ≤ 0.125 µg/mL. The MIC (sensitive S. pyogenes) was ≤ 0.125 µg/mL, the MIC (E. faecalis) was ≤ 1 µg/mL and the MIC [2] was ≤ 0.25 µg/mL.
For CC[C@H]1OC(=O)[C@H](C)[C@@H](O[C@H]2C[C@@](C)(OC)[C@@H](OCCNCCOCCOCCc3ccc4c(c3)c(=O)c(C(=O)O)cn4CC)[C@H](C)O2)[C@H](C)[C@@H](O[C@@H]2O[C@H](C)C[C@H](N(C)C)[C@H]2O)[C@](C)(OC)C[C@@H](C)C(=O)[C@H](C)[C@@H](O)[C@]1(C)O [Example 18, 4″-O-{2-({2-[(2-{[2-(3-Carboxy-1-ethyl-4-oxo-1,4-dihydro-6-quinolinyl)ethyl]oxy}ethyl)oxy]ethyl}amino)ethyl}-6-O-methyl-erythromycin A formate], the MIC (M. catarrhalis) was ≤ 1 µg/mL, the MIC [1] was ≤ 0.25 µg/mL and the MIC (sensitive S. pneumoniae) was ≤ 0.125 µg/mL. The MIC (sensitive S. pyogenes) was ≤ 0.125 µg/mL, the MIC (E. faecalis) was ≤ 1 µg/mL and the MIC [2] was ≤ 0.25 µg/mL.
With CC[C@H]1OC(=O)[C@H](C)[C@@H](OC2C[C@@](C)(OC)[C@@H](OCCNCCOCCNc3cc4c(=O)c(C(=O)O)cn(C5CC5)c4cc3Cl)[C@H](C)O2)[C@H](C)[C@@H](O[C@@H]2O[C@H](C)C[C@H](N(C)C)[C@H]2O)[C@](C)(O)C[C@@H](C)CN(C)[C@H](C)[C@@H]2OC(=O)O[C@]12C (stereo partly shown) [Example 3, 4″-O-(2-{2-[2-(3-Carboxy-7-chloro-1-cyclopropyl-4-oxo-1,4-dihydro-quinolin-6-ylamino)-ethoxy]-ethylamino}-ethyl)-azithromycin 11,12-cyclic carbonate] the MIC [1] was ≤ 0.25 µg/mL, the MIC (sensitive S. pneumoniae) was ≤ 0.125 µg/mL and the MIC (sensitive S. pyogenes) was ≤ 0.125 µg/mL. For the same molecule, the MIC (E. faecalis) was ≤ 1 µg/mL and the MIC [2] was ≤ 0.25 µg/mL.
For CC[C@H]1OC(=O)[C@H](C)[C@@H](O[C@H]2C[C@@](C)(OC)[C@@H](OCCCNC(=O)CCOCCCc3ccc4c(c3)c(=O)c(C(=O)O)cn4N(C)C)[C@H](C)O2)[C@H](C)[C@@H](O[C@@H]2O[C@H](C)C[C@H](N(C)C)[C@H]2O)[C@](C)(OC)C[C@H](C)C(=O)[C@H](C)[C@@H](O)[C@]1(C)O [Example 9, 4″-O-(3-{3-[3-(3-Carboxy-1-dimethylamino-4-oxo-1,4-dihydro-quinolin-6-yl)-propoxy]-propionylamino}-propyl)-6-O-methyl-erythromycin A], the MIC (M. catarrhalis) was ≤ 1 µg/mL, the MIC (sensitive S. pneumoniae) was ≤ 0.125 µg/mL and the MIC (sensitive S. pyogenes) was ≤ 0.125 µg/mL. For the same molecule, the MIC (E. faecalis) was ≤ 1 µg/mL and the MIC [2] was ≤ 0.25 µg/mL.
